This passage reports IC50 results from patent US20250171431A1, “HETEROCYCLIC INHIBITORS OF IGF-1R FOR TREATMENT OF DISEASE” (HORIZON THERAPEUTICS IRELAND DAC, priority 2023, published 2025).

SMILES strings stand for the structures.

IGF-1R, sequence (P08069 31-1367): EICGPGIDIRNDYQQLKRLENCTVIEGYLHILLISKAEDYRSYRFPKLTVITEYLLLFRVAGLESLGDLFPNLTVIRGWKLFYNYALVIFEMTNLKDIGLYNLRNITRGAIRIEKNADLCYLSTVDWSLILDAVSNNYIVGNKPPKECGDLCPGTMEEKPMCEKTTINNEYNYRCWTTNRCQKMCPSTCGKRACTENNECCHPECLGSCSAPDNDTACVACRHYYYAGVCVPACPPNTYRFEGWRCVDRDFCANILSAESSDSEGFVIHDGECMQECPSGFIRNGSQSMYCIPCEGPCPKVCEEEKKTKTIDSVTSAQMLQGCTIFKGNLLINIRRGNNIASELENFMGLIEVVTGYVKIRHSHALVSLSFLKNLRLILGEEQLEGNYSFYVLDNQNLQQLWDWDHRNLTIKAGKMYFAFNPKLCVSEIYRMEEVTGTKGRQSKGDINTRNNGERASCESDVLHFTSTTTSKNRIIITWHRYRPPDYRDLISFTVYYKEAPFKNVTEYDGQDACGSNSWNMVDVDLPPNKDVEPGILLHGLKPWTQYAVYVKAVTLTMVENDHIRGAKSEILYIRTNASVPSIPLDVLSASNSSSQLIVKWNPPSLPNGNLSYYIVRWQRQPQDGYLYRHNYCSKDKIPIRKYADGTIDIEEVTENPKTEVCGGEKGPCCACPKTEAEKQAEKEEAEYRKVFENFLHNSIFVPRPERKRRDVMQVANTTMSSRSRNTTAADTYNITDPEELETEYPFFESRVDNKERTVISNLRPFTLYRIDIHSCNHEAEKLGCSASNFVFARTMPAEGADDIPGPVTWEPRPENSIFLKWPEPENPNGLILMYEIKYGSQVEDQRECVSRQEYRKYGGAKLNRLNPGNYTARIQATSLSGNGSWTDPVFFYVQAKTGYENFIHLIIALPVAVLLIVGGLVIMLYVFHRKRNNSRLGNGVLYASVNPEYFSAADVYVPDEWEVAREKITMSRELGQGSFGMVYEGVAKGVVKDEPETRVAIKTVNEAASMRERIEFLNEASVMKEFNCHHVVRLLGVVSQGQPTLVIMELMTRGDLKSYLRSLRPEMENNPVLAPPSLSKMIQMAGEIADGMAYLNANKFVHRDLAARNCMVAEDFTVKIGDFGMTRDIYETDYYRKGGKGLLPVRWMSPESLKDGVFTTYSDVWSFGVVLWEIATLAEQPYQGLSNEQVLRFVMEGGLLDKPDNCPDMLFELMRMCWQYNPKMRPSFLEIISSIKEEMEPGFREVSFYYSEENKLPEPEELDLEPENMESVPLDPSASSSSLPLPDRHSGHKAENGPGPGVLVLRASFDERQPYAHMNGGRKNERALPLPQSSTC

The experiment concerns the target IGF-1R (Homo sapiens (Human), UniProt P08069). Nature of the experiment: Example B-1: IGF-1R Assay (PC3 cells, IGF1 stimulation, AlphaLISA). The format is cell-based. Particulars: 200 ng/mL IGF1 stimulation, read-out: Biological Activity against IGF-1R IC50. The method in brief:
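Readout is AlphaLISA signal from lysed PC3 cells, expressed as % inhibition versus vehicle and EC80 controls and banded by IC50. Before lysis, the cells were starved of serum for 2 h, exposed to 3× serially diluted compound for 2 h, and stimulated for 30 min with 200 ng/mL IGF1 (final).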
For orientation: Alpha assays give light when donor and acceptor beads are brought close together.
What is called IC50 is the concentration that gives 50% inhibition. In the case of `COc1cc(Nc2nccc(Nc3ccc4nc(C)ccc4c3)n2)ccc1OCCCN1CCCCC1` [Compound 456, 2-[3-methoxy-4-(3-piperidinopropoxy)phenylamino]-4-(2-methyl-6-quinolylamino) pyrimidine], the 50% inhibitory concentration (IC50) was no more than 500 nM.

As for `COc1cc(Nc2nccc(Nc3cnc4ccc(Cl)cc4c3)n2)cnc1N1CCN(C2COC2)CC1` [Compound 481, 4-(6-chloro-3-quinolylamino)-2-{5-methoxy-6-[4-(3-oxetanyl)-1-piperazinyl]-3-pyridylamino}pyrimidine], the IC50 is no more than 500 nM.

Take `COc1cc(Nc2nccc(Nc3cc4ccccc4nc3C(N)=O)n2)cnc1O[C@H]1C[C@@H](N(C)C)C1` [Compound 172, 3-((2-((6-((1s,3s)-3-(dimethylamino)cyclobutoxy)-5-methoxypyridin-3-yl)amino)pyrimidin-4-yl)amino)quinoline-2-carboxamide]: the IC50 was no more than 500 nM.

Consider `COc1cc(Nc2nccc(Nc3cnc4ccccc4c3)n2)ccc1O[C@H]1CC[C@H](N2CCOCC2)CC1` [Compound 16, 2-{3-methoxy-4-[(1r,4r)-4-morpholinocyclohexyloxy]phenylamino}-4-(3-quinolylamino)pyrimidine], for which the IC50 was no more than 500 nM.

Take `COc1cc(Nc2nccc(Nc3cnc4c(F)cccc4c3)n2)ccc1OCCCN1CCCCC1` [Compound 96, 4-(8-fluoro-3-quinolylamino)-2-[3-methoxy-4-(3-piperidinopropoxy)phenylamino]pyrimidine]: the IC50 was no more than 500 nM.

With `COc1cc(Nc2nccc(Nc3ccc4c(c3)CCN(C)C4)n2)ccc1OCCCN1CCCCC1` [Compound 450, 2-[3-methoxy-4-(3-piperidinopropoxy)phenylamino]-4-(2-methyl-1,2,3,4-tetrahydro-6-isoquinolylamino) pyrimidine], the half-maximal inhibitory concentration (IC50) was in the range of 500 to 2000 nM.

`COc1cc(Nc2nccc(Nc3cnc4c(c3)O[C@H]3CCCC[C@@H]3O4)n2)ccc1O[C@H]1C[C@@H](N(C)C)C1` [Compound 191, 4-[(8aS,10aS)-5,6,7,8,8a,10a-hexahydro-9,10-dioxa-1-aza-3-anthrylamino]-2-{3-methoxy-4-[(1s,3R)-3-(dimethylamino)cyclobutoxy]phenylamino}pyrimidine]: the IC50 was no more than 500 nM.

As for `Clc1cc(Nc2nccc(Nc3cnc4ccccc4c3)n2)ccc1N1CCOCC1` [Compound 459, 2-(3-chloro-4-morpholinophenylamino)-4-(3-quinolylamino)pyrimidine], the IC50 was no more than 500 nM.

For the compound `COc1cc(Nc2nccc(Nc3cc4ccccc4[nH]c3=O)n2)ccc1O[C@H]1C[C@H](N(C)C)C1` [Compound 249, 3-(2-{3-methoxy-4-[(1r,3r)-3-(dimethylamino)cyclobutoxy]phenyl-amino}-4-pyrimidinylamino)-2(1H)-quinolinone], the IC50 is no more than 500 nM.

`COc1cc(Nc2nccc(Nc3cc(Cl)cnc3C(N)=O)n2)ccc1O[C@H]1C[C@@H](N(C)C)C1` [Compound 198, 5-chloro-3-(2-{3-methoxy-4-[(1s,3s)-3-(dimethylamino)cyclobutoxy]phenylamino}-4-pyrimidinylamino)-2-pyridinecarboxamide]: the IC50 is no more than 500 nM.

With `COc1cc(Nc2nccc(Nc3cnc4cc(F)c(F)cc4c3)n2)cnc1N1CCC(C)(O)CC1` [Compound 156, 1-(5-((4-((6,7-difluoroquinolin-3-yl)amino)pyrimidin-2-yl)amino)-3-methoxypyridin-2-yl)-4-methylpiperidin-4-ol], the IC50 is no more than 500 nM.

With `CN(C)[C@H]1C[C@H](Oc2ccc(Nc3nccc(Nc4cnc5c(c4)OCCO5)n3)cc2)C1` [Compound 317, 4-(2,3-dihydro-1,4-dioxa-5-aza-7-naphthylamino)-2-{p-[(1r,3r)-3-(dimethylamino)cyclobutoxy]phenylamino}pyrimidine], the IC50 was no more than 500 nM.

Turning to `CC(O)C(=O)N1CCN(c2ccc(Nc3nccc(Nc4cnc5ccccc5c4)n3)cc2)CC1` (stereo not drawn) [Compound 465, 2-hydroxy-1-(4-{p-[4-(3-quinolylamino)-2-pyrimidinylamino]phenyl}-1-piperazinyl)-1-propanone], the IC50 is no more than 500 nM.

Consider `CN(C)[C@H]1CC[C@@H](Oc2ccc(Nc3nccc(Nc4cnc5ccccc5c4)n3)cc2)CC1` [Compound 40, 4-(3-quinolylamino)-2-{p-[(1s,4s)-4-(dimethylamino)cyclohexyloxy]phenylamino}pyrimidine], for which the IC50 was no more than 500 nM.

Consider `Oc1ccc2ncc(Nc3ccnc(Nc4ccc(OCCCN5CCOCC5)cc4)n3)cc2c1` [Compound 414, 3-{2-[p-(3-morpholinopropoxy)phenylamino]-4-pyrimidinylamino}-6-quinolinol], for which the IC50 is no more than 500 nM.

`COc1cc(Nc2nccc(Nc3cnc4c(cnn4C)c3)n2)ccc1O[C@H]1C[C@@H](N(C)C)C1` [Compound 280, 2-{3-methoxy-4-[(1s,3s)-3-(dimethylamino)cyclobutoxy]phenylamino}-4-(1-methyl-1H-1,2,7-triazainden-5-ylamino)pyrimidine]: the 50% inhibitory concentration (IC50) is no more than 500 nM.

On to `COc1cc(Nc2nccc(Nc3cnc4ncc(Cl)cc4c3)n2)ccc1O[C@H]1C[C@@H](N(C)C)C1` [Compound 83, 4-(6-chloro-1,8-diaza-3-naphthylamino)-2-{3-methoxy-4-[(1s,3s)-3-(dimethylamino)cyclobutoxy]phenylamino}pyrimidine], for which the IC50 was no more than 500 nM.

With `COc1cc(Nc2nccc(Nc3cc4cc(F)c(F)cc4[nH]c3=O)n2)ccc1O[C@H]1C[C@@H](N(C)C)C1` [Compound 119, 6,7-difluoro-3-(2-{3-methoxy-4-[(1s,3s)-3-(dimethylamino)cyclobutoxy]phenyl-amino}-4-pyrimidinylamino)-1,2-dihydro-2-quinolinone], the IC50 was no more than 500 nM.

In the case of `COc1cc(Nc2nccc(Nc3cnc4c(Cl)cccc4c3)n2)ccc1N1CCOCC1` [Compound 461, 4-(8-chloro-3-quinolylamino)-2-(3-methoxy-4-morpholinophenylamino) pyrimidine], the IC50 is no more than 500 nM.

On to `COc1cc(Nc2nccc(Nc3cnc4c(F)cc(F)cc4c3)n2)cnc1O[C@H]1C[C@@H](N(C)C)C1` [Compound 290, 4-(6,8-difluoro-3-quinolylamino)-2-{5-methoxy-6-[(1s,3s)-3-(dimethylamino)cyclobutoxy]-3-pyridylamino}pyrimidine], for which the IC50 is no more than 500 nM.

`COc1cc(Nc2nccc(Nc3cnc4cc(F)c(F)cc4c3)n2)cnc1N1CC(N(C)C)C1` [Compound 48, 4-(6,7-difluoro-3-quinolylamino)-2-{6-[3-(dimethylamino)-1-azetidinyl]-5-methoxy-3-pyridylamino}pyrimidine]: the IC50 is no more than 500 nM.

In the case of `COc1cc(Nc2nccc(Nc3cnc4c(C)cccc4c3)n2)ccc1OCCCN1CCCCC1` [Compound 99, 2-[3-methoxy-4-(3-piperidinopropoxy)phenylamino]-4-(8-methyl-3-quinolylamino)pyrimidine], the IC50 is no more than 500 nM.

On to `COc1ccc2ccc(Nc3ccnc(Nc4ccc(OCCCN5CCCCC5)c(OC)c4)n3)cc2c1` [Compound 452, 4-(7-methoxy-2-naphthylamino)-2-[3-methoxy-4-(3-piperidinopropoxy)phenylamino] pyrimidine], for which the IC50 is no more than 500 nM.

With `c1ccc2ncc(Nc3ccnc(Nc4ccc(OCCCN5CCOCC5)cc4)n3)cc2c1` [Compound 394, 2-[p-(3-morpholinopropoxy)phenylamino]-4-(3-quinolylamino)pyrimidine], the half-inhibitory concentration (IC50) is no more than 500 nM.

`CN1CC2(Cc3ccc(Nc4nccc(Nc5cc6cccc(F)c6[nH]c5=O)n4)cc3O2)C1` [Compound 45, 8-fluoro-3-{2-(1-methyl-3′H-spiro[azetidine-3,2′-[1]benzofuran]-6′-ylamino)-4-pyrimidinylamino}-1,2-dihydro-2-quinolinone]: the IC50 was no more than 500 nM.

On to `COc1cc(Nc2nccc(Nc3cnc4c(c3)SC(C)CC4)n2)ccc1OCCCN1CCCCC1` (stereo not drawn) [Compound 61, 2-[3-methoxy-4-(3-piperidinopropoxy)phenylamino]-4-(2-methyl-3,4-dihydro-2H-1-thia-5-azanaphth-7-ylamino)pyrimidine], for which the IC50 is no more than 500 nM.

With `COc1cc(Nc2nccc(Nc3cnc4ccc(O)cc4c3)n2)ccc1O[C@H]1C[C@H](N(C)C)C1` [Compound 330, 3-(2-{3-methoxy-4-[(1r,3r)-3-(dimethylamino)cyclobutoxy]phenylamino}-4-pyrimidinylamino)-6-quinolinol], the IC50 was no more than 500 nM.

`COc1cc(Nc2nccc(Nc3cnc4ccc(C(F)(F)F)cc4c3)n2)ccc1OCCCN1CCOCC1` [Compound 419, 2-[3-methoxy-4-(3-morpholinopropoxy)phenylamino]-4-[6-(trifluoromethyl)-3-quinolylamino]pyrimidine]: the IC50 was no more than 500 nM.

With `COc1cc(Nc2nccc(Nc3cnc4cc(F)c(F)cc4c3)n2)cnc1N1C[C@H]2C[C@@H]1CO2` [Compound 127, 2-(6-{(1R,4R)-2-oxa-5-azabicyclo[2.2.1]hept-5-yl}-5-methoxy-3-pyridylamino)-4-(6,7-difluoro-3-quinolylamino)pyrimidine], the half-inhibitory concentration (IC50) is no more than 500 nM.

On to `COc1cc(Nc2nccc(Nc3cnc4cc(F)c(F)cc4c3)n2)cnc1N1CCS(=O)(=O)CC1` [Compound 161, 4-(5-((4-((6,7-difluoroquinolin-3-yl)amino)pyrimidin-2-yl)amino)-3-methoxypyridin-2-yl)thiomorpholine 1,1-dioxide], for which the IC50 is 500 to 2000 nM.

Regarding `COc1cc(Nc2nccc(Nc3cc4cccc(F)c4[nH]c3=O)n2)cnc1N1CCN(C)CC1` [Compound 197, 8-fluoro-3-{2-[5-methoxy-6-(4-methyl-1-piperazinyl)-3-pyridylamino]-4-pyrimidinylamino}-1,2-dihydro-2-quinolinone], the IC50 is no more than 500 nM.

Regarding `CN1CC(Oc2ccc(Nc3nccc(Nc4cnc5ccccc5c4)n3)cc2)C1` [Compound 295, 2-[p-(1-methyl-3-azetidinyloxy)phenylamino]-4-(3-quinolylamino)pyrimidine], the IC50 lay within 2000 to 10000 nM.

Consider `COc1cc(Nc2ncc(F)c(Nc3cnc4ccccc4c3)n2)ccc1OCCCN1CCCCC1` [Compound 431, 5-fluoro-2-[3-methoxy-4-(3-piperidinopropoxy)phenylamino]-4-(3-quinolylamino)pyrimidine], for which the IC50 is no more than 500 nM.
